Results from article PMC9496346, “Controversial Role of Transferrin in the Transport of Ruthenium Anticancer Drugs” (Biomolecules, 2022).
Marks after values point to notes of the source that are not given here. Each block holds one molecule with its values, some of them ahead of it.

Experiments:
HepG2 cells [1] = experiment: Cellular Fe content of HepG2 cells (ICP-MS); format: cell-based, human; details: HepG2, 24 h; 60 μM Ru, added HSA or Tf 30 μM; serum-free DMEM with ~15 μM BSA
Method: (§1) Human hepatoma (HepG2) cells were originally received from the American Type Culture Collection (ATCC, Cat. No. HB-8065) and cultured as described previously. This cell line was used for Tf-dependent metal uptake studies because of the high expression levels of human TfR1 [43]. For treatments, the cells were grown to confluence in 24-well plates, using Advanced DMEM (Dulbecco’s modified Eagle’s minimal essential medium, Invitrogen Cat. No. 12491-015), supplemented with L-glutamine (2.0 mM), antibiotic-antimycotic mixture (100 mg mL^−1 penicillin, 100 mg mL^−1 steptomycin and 0.25 mg mL^−1 amphotericin B) and fetal calf serum (heat-inactivated, 2% v/v). Confluent cell layers were washed with serum-free treatment medium (DMEM, Invitrogen Cat. No. 19938-025), supplemented with glutamine, antibiotic-antimycotic mixture and 1.0 mg mL^−1 AlbuMax (Gibco Cat. No. 11020-021). […] After washing, the wells were filled with the treatment medium containing metal additions (detailed in B1–B9 of Table 1). The treatment media were sterilized by filtration through 0.2 µm membrane filters, and pre-equilibrated for 24 h at 310 K and 5% CO2 prior to the addition to cells, except for sample B1 that was used immediately after preparation. All the treatments were performed in triplicate, using random well positions to avoid experimental bias.
(§2) After 24 h incubation with the treatment media (B1–B9 in Table 1), the medium from each well was collected for the determination of Ru–protein binding and BLI analyses, and the wells were washed twice with PBS (0.50 mL/well). […]
(§3) The values of metal uptake were normalized using protein content in cell lysates. For protein determination, Bradford reagent (Sigma Cat. No B6916; 98 µL) was mixed with a small aliquot (2.0 µL) of each cell lysate, and the absorbance at 600 nm was measured using a Victor V3 plate reader. […] The test and calibration samples were analyzed in triplicate. […]

HepG2 cells [2] = experiment: Cellular Ru uptake by HepG2 cells (ICP-MS); format: cell-based, human; details: HepG2, 24 h; 60 μM Ru, added HSA or Tf 30 μM; serum-free DMEM with ~15 μM BSA; media pre-equilibrated 24 h except B1
Method: as §1, §2, §3

HepG2 cells [3] = experiment: Toxicity to HepG2 cells judged from cell morphology during treatment; format: cell-based, human; details: HepG2, 24 h incubation, 60 μM Ru
Method: as §1, with “All the treatments were performed in triplicate, using random well positions to avoid experimental bias.” left out
Cellular Fe levels were also measured to control the Tf-mediated Fe uptake. […]

[4] = test system: protein in cell culture medium; experiment: Ru–protein binding in cell culture medium (gel filtration, GFAAS); format: in vitro ADME; details: medium after 24 h cell treatment; gel filtration >6 kDa; 60 μM Ru, added HSA or Tf 30 μM, ~15 μM BSA
Method: An aliquot (50 µL) of cell culture medium from each well was passed through a separate Bio-Rad P6 centrifugal gel filtration column that was pre-saturated with PBS, according to manufacturer’s instructions. The eluants (50 ± 5 µL volume) contained protein-bound Ru fractions (>6 kDa molecular mass). The protein recovery, measured by Bradford assays, exceeded 95%. Another 50 µL sample of each medium was taken into separate tubes. Both the original and gel-filtered media samples were digested with 0.20 mL of 65% (v/v) HNO3 for 24 h. The digests were diluted with 0.75 mL of 0.10 M HCl, and the Ru content in the samples was determined by GFAAS. The percentage of protein binding was determined from the ratio of Ru content in the gel-filtered and original media samples [30, 31].

[5] = test system: T1, recombinant human transferrin receptor 1 (TfR1); experiment: BLI of Tf–TfR1 binding in dilute human serum pre-treated with metal complexes; details: serum incubated with 100 μM Ru complex or 60 μM Fe(III) as citrate
T1 construct: extracellular domain (Cyst89-Phe760), (His)6-tagged at the N-terminus; purchased Sino Biological, Beijing, China (TfR1); Sigma (human serum, Cat. No. H4522, as source of Tf) 11020-H07H
Method: The effects of Ru complexes on the Tf cycle were determined by BLI using previously developed protocols. The instrument used was a single-channel BLItz analyser (ForteBio, Menlo Park, CA, USA) with a tube holder (250 µL solution volume) and Ni(II)–nta coated optical probes held at 295 ± 1 K. Measurements used the Advanced Kinetics mode. […] Solutions of metal–Tf adducts (typical final Tf concentrations 150 nM or 1.0 µM) were prepared in the binding buffer (Section 2.1). The pH 7.4 binding buffer was used for Tf binding and dissociation from the probe, and the pH 5.6 buffer (Section 2.1) was used to mimic the endosomal step of the Tf cycle. Metal–Tf solutions (A1–A9 in Table 1) were diluted 100–400-fold, cell culture media were diluted 30-fold, and human serum samples were diluted 200-fold with the binding buffer immediately before the BLI measurements. All BLI data were background corrected by using data from buffer only runs with the same TfR1-loaded optical probe. Consistent BLI results were obtained in at least two independent measurements, using different probes and different batches of Tf solutions. Calculations of the Tf–TfR1 binding constants were performed using the 1:1 binding model (BLItz software, Version 1.1, Forte-Bio 2013), which can be used as a reasonable approximation of the physiological 2:2 Tf–TfR1 binding mechanism at low Tf concentrations. […]
(b) BLI response curves for dilute human serum samples in the presence or absence of metal complexes. Intact commercial human serum (Sigma H4522) was incubated with Fe(III)-citrate (60 µM) or with Ru complexes (100 µM) for 4 h at 310 K, then diluted 200-fold (to [Tf] ~ 150 nM) with the binding buffer (20 mM HEPES, 25 mM NaHCO3, 140 mM NaCl, pH = 7.4), and analyzed with the TfR1-loaded BLI probe. Designations of the steps in Tf cycle (A–D) correspond to those in Figure 1d-f, main text. Calculated KD values (1:1 binding model, BLItz software) were as follows: 8.0 nM (serum + Fe(III) citrate); or 28 ± 2 nM (serum in the presence or absence of Ru complexes). Typical anticancer Ru complexes, NAMI-A, KP1019 and RAPTA-C, were synthesized and characterized previously in the Lay group.
(1 picture or pasted object on this page, not shown here)

[6] = Particle size (protein aggregation) by dynamic light scattering; format: physicochemical; details: DLS, 298 K; 10 μM Tf in binding buffer pH 7.4
Method: Protein samples (0.10 mM) were diluted 10-fold with binding buffer before the measurements. The measured parameters were the averages of 12–15 scans (scan time, 3 s). […] Analysis of Tf crystal structures that are available in the public domain from the Protein Data Bank (PDB) was performed with PyMOL software (version 2.1.1, Schrodinger LLC 2021, New York, NY, USA).

[7] = test system: T2, recombinant human transferrin receptor 1 (TfR1); experiment: BLI of Tf–TfR1 binding in dilute cell culture media after uptake experiments; details: 1.0 µM human Tf, 295 K; serum-free DMEM with 1.0 mg mL−1 BSA collected after HepG2 uptake experiments, diluted 30-fold; 1:1 binding model
T2 construct: extracellular domain (Cyst89-Phe760), (His)6-tagged at the N-terminus; purchased Sino Biological, Beijing, China (TfR1)
Method: The effects of Ru complexes on the Tf cycle were determined by BLI using previously developed protocols. The instrument used was a single-channel BLItz analyser (ForteBio, Menlo Park, CA, USA) with a tube holder (250 µL solution volume) and Ni(II)–nta coated optical probes held at 295 ± 1 K. Measurements used the Advanced Kinetics mode. […] Solutions of metal–Tf adducts (typical final Tf concentrations 150 nM or 1.0 µM) were prepared in the binding buffer (Section 2.1). The pH 7.4 binding buffer was used for Tf binding and dissociation from the probe, and the pH 5.6 buffer (Section 2.1) was used to mimic the endosomal step of the Tf cycle. Metal–Tf solutions (A1–A9 in Table 1) were diluted 100–400-fold, cell culture media were diluted 30-fold, and human serum samples were diluted 200-fold with the binding buffer immediately before the BLI measurements. All BLI data were background corrected by using data from buffer only runs with the same TfR1-loaded optical probe. Consistent BLI results were obtained in at least two independent measurements, using different probes and different batches of Tf solutions. Calculations of the Tf–TfR1 binding constants were performed using the 1:1 binding model (BLItz software, Version 1.1, Forte-Bio 2013), which can be used as a reasonable approximation of the physiological 2:2 Tf–TfR1 binding mechanism at low Tf concentrations.
(a) BLI response curves for 1.0 µM of human Tf at 295 K in dilute cell culture media after Ru uptake experiments by HepG2 cells (Section 3.2 in the main text). Media (serum-free DMEM, containing 1.0 mg mL−1 BSA as a background protein, as well as KP1019 and/or Tf, as shown in the figure legend), were collected after the end of uptake experiments, then were diluted 30-fold with buffer (20 mM HEPES + 25 mM NaHCO3 + 140 mM NaCl, pH = 7.4) and applied to TfR1-loaded BLI probe. Designations of the steps in Tf cycle (A–D) correspond to those in Figure 1d-f, main text. Calculated KD values (1:1 binding model, BLItz software) were as […]

Molecule: [Cl-].[Cl-].[Cl-].[Cl-].[Ru+3].c1ccc2[nH+][nH]cc2c1.c1ccc2[nH]ncc2c1.c1ccc2[nH]ncc2c1 [KP1019 fresh]
Fe Content (cellular metal content) (HepG2 cells [1]): 11.2 ± 6.5 ^f nmol per mg protein
Ru Uptake (cellular metal content) (HepG2 cells [2]): 6.6 ± 2.8 ^e nmol per mg protein
Toxicity judged from cell morphology (HepG2 cells [3]): significant cell detachment
% Ru–Protein (proportion of protein-bound Ru in cell culture medium) [4]: 46 ± 4 molar %

Effect on Tf–TfR1 binding in whole human serum [5]: did not have any effect
Molecule: CS(C)=O.[Cl-].[Cl-].[Cl-].[Cl-].[Ru+3].c1c[nH+]c[nH]1.c1c[nH]cn1 [NAMI-A, (ImH)[Ru^IIICl4(Im)(S-dmso)]]

Molecule: Cc1ccc(C(C)C)cc1.[Cl][Ru]([Cl])[PH]12CN3CN(CN(C3)C1)C2 [RAPTA-C, [Ru^II(η^6-p-cymene)Cl2(pta)]]
Effect on Tf–TfR1 binding in whole human serum [5]: did not have any effect

Ru Uptake (cellular metal content) (HepG2 cells [2]): 0.09 ± 0.03 nmol per mg protein
% Ru–Protein (proportion of protein-bound Ru in cell culture medium) [4]: 2 ± 1 ^g molar %
Molecule: O=C([O-])CN(CC(=O)[O-])CC(=O)[O-].O=C([O-])CN(CC(=O)[O-])CC(=O)[O-].[Ru+3] [[Ru(nta)2]^3−, [Ru^III(nta)2]^3−]
Fe Content (cellular metal content) (HepG2 cells [1]): 1.4 ± 0.4 nmol per mg protein

Molecule: Fe2Tf: fully Fe(III)-saturated human transferrin
Mean Particle Size [6]: 7 ± 2 nm
Kd [7]: 22 nM

Molecule: Fe(III) citrate
Effect on Tf–TfR1 binding in whole human serum [5]: significantly increased the binding affinity

Molecule: Ru2Tf: apoTf + 2.0 eq. [Ru^III(nta)2]^3−; Ru(III) bound to Fe(III) sites of transferrin
Fe Content (cellular metal content) (HepG2 cells [1]): 1.9 ± 0.7 nmol per mg protein
% Ru–Protein (proportion of protein-bound Ru in cell culture medium) [4]: 74 ± 3 ^g molar %
Mean Particle Size [6]: 7 ± 1 nm

Molecule: RuFeTf: apoTf + 1.0 eq. [Fe^III(nta)2]^3−, then 1.0 eq. [Ru^III(nta)2]^3−; mixed Ru(III)–Fe(III)–Tf adduct
Mean Particle Size [6]: 6.5 ± 1 nm

Molecule: apoTf: human apo transferrin
Mean Particle Size [6]: 7 ± 1 nm
Kd [7]: 32 nM

Molecule: monoFeTf: apoTf + 1.0 eq. [Fe^III(nta)2]^3−; mixture of FeCTf and FeNTf forms
Mean Particle Size [6]: 7 ± 1 nm
